The text below walks through data of patent publication US20250346583A1, “NEW DERIVATIVES FOR TREATING TRPM3 MEDIATED DISORDERS” (Katholieke Universiteit Leuven, priority 2022, published 2025).

The target in this assay is T1, mouse TRPM3α2 (mTRPM3) ion channel (Mus musculus, UniProt J9SQF3).
T1 construct: expressed in transfected cells; host or cells: flip-in HEK293
The assay can be described thus: TRPM3 ion channel driven Ca2+ uptake, Fluo-4 AM assay in overexpressing flip-in HEK293 cells. Type of assay: cell-based. To be noted: inhibition of Ca2+ influx stimulated with Pregnenolone sulfate (PS) 50 μM. On the procedure:
Monitoring the TRPM3 Ion Channel Driven Ca^2+ Uptake.
In order to monitor the inhibition of the mouse TRPM3α2 (mTRPM3) ion channel by the compounds of the invention, a cellular system making use of an mTRPM3alpha2 or hTRPM3 overexpressing cell line (flip-in HEK293) was used. The TRPM3 channel was stimulated/opened with Pregnenolone sulfate (PS) (50 μM) which results in Ca^2+ influx.
For mTRPM3, the intracellular Ca^2+ was measured with a Calcium responsive dye, Fluor-4 AM ester (Invitrogen). Cells were cultured until a confluence of 80-90%, washed with Versene (Invitrogen) and detached from the surface by a short incubation with 0.05% Trypsin (Invitrogen). The trypsination process was stopped by the addition of complete cell culture medium (DMEM, glutamax,10% FCS, NEAA, Pen-Strep). Cells were collected and resuspended in Krebs buffer without Calcium at RT.
Prior the cell seeding (+2000 cells/well into a black, 384 well plate (Greiner)) the diluted compound was added in the assay plate, together with the PS dissolved in Krebs buffer containing Calcium. […] Directly after cell addition the plates were read on an Envision fluorescence reader (Perkin Elmer) by an Excitation of 485 nm and emission at 535 nm.
Channel inhibition was calculated compared to a non-PS stimulated control versus a condition stimulated with PS (50 μM) with vehicle. The ability of the compounds of the invention to inhibit this activity was determined as: Percentage inhibition=[1-((RFU determined for sample with test compound present - RFU determined for sample with positive control inhibitor) divided by (RFU determined in the presence of vehicle - RFU determined for sample with positive control inhibitor))]*100.
The activities of the Example compounds tested are depicted in the table below. The activity ranges A, B and C refer to IC50 values in the Fluo-4 AM assay as follows: “A”: IC50<1 μM; “B”: 1 μM<IC50<20 μM and “C”: IC50>20 μM

Some results are limits rather than exact numbers.

T1 sequence (J9SQF3 1-1709 isoform J9SQF3-12): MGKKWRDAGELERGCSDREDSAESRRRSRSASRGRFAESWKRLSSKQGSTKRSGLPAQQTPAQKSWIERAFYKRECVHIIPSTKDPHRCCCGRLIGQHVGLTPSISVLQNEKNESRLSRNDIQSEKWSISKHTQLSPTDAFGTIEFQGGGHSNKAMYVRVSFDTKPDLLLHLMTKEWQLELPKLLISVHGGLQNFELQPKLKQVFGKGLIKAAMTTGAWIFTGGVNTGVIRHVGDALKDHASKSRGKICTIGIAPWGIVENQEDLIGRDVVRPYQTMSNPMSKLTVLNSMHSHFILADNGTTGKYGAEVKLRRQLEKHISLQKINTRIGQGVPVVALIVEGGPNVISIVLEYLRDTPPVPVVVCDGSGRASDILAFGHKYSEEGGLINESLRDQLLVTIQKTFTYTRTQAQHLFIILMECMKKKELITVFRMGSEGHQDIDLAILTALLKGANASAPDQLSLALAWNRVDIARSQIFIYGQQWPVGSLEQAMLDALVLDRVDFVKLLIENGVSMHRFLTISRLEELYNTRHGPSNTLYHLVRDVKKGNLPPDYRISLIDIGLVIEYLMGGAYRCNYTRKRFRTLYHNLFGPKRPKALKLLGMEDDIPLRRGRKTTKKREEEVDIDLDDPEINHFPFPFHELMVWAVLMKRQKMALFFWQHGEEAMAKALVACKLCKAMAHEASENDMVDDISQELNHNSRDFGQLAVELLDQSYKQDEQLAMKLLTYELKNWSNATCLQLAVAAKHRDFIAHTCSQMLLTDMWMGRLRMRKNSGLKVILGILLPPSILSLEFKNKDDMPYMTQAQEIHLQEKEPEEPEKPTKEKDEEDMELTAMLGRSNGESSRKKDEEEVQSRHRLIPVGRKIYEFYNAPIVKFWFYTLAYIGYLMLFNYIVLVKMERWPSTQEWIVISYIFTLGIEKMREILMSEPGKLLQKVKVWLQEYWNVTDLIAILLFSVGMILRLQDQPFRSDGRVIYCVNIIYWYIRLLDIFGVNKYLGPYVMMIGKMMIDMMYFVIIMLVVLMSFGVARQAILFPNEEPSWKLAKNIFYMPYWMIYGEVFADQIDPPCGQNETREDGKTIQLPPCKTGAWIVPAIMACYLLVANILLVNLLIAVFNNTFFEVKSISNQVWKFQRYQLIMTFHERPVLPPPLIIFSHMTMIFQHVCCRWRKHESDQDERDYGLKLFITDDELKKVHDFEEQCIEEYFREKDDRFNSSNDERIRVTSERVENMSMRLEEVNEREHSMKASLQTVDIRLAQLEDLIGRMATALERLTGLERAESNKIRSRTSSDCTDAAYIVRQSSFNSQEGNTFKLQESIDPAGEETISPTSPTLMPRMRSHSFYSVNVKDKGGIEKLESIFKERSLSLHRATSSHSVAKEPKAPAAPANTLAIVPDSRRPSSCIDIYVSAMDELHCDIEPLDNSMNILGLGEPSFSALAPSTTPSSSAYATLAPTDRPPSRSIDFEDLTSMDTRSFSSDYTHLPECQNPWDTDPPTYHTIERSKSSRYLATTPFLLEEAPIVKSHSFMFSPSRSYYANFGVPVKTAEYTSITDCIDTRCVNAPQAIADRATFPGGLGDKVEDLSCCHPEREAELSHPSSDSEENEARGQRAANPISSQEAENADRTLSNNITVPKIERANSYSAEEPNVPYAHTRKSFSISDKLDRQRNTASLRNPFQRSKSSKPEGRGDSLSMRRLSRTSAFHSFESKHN

Consider `Cc1oc2ccc(OCc3cccnc3C(F)(F)F)cc2c1C1(CO)CC1` [Cpd 001, [1-(2-methyl-5-{[2-(trifluoromethyl)pyridin-3-yl]methoxy}-1-benzofuran-3-yl)cyclopropyl]methanol], for which the IC50 was less than 1000 nM.
Then `Cc1ncsc1COc1ccc2oc(C)c(-c3ncc(CO)o3)c2c1` [Cpd 002, (2-{2-methyl-5-[(4-methyl-1,3-thiazol-5-yl)methoxy]-1-benzofuran-3-yl}-1,3-oxazol-5-yl)methanol], with less than 1000 nM.
Molecule `Cc1oc2ccc(OCc3cccnc3C(F)(F)F)cc2c1C1(NC(=O)CO)CC1` [Cpd 003, 2-hydroxy-N-[1-(2-methyl-5-{[2-(trifluoromethyl)pyridin-3-yl]methoxy}-1-benzofuran-3-yl)cyclopropyl]acetamide] had a concentration for half-maximal inhibition (IC50) of less than 1000 nM.
The result for `Cc1ncsc1COc1ccc2oc(C)c(C3(CO)CC3)c2c1` [Cpd 004, (1-{2-methyl-5-[(4-methyl-1,3-thiazol-5-yl)methoxy]-1-benzofuran-3-yl}cyclopropyl)methanol] reads less than 1000 nM; that for `Cc1oc2ccc(OCc3cccnc3C(F)(F)F)cc2c1C1(NS(=O)(=O)C2CC2)CC1` [Cpd 005, N-[1-(2-methyl-5-{[2-(trifluoromethyl)pyridin-3-yl]methoxy}-1-benzofuran-3-yl)cyclopropyl]cyclopropanesulfonamide], less than 1000 nM.
`Cc1oc2ccc(OCc3cccnc3C(F)(F)F)cc2c1C1(NS(C)(=O)=O)CC1` [Cpd 006, N-[1-(2-methyl-5-{[2-(trifluoromethyl)pyridin-3-yl]methoxy}-1-benzofuran-3-yl)cyclopropyl]methanesulfonamide] registered an IC50 of less than 1000 nM.
Then `Cc1ncsc1COc1ccc2oc(C)c(-c3ncc(CO)[nH]3)c2c1` [Cpd 007, (2-{2-methyl-5-[(4-methyl-1,3-thiazol-5-yl)methoxy]-1-benzofuran-3-yl}-1H-imidazol-4-yl)methanol], with less than 1000 nM.
The result for `COCCC(=O)NC1(c2c(C)oc3ccc(OCc4cccnc4C(F)(F)F)cc23)CC1` [Cpd 008, 3-methoxy-N-[1-(2-methyl-5-{[2-(trifluoromethyl)pyridin-3-yl]methoxy}-1-benzofuran-3-yl)cyclopropyl]propanamide] reads less than 1000 nM.
Then `Cc1oc2ccc(OCc3cccnc3C(F)(F)F)cc2c1C1(NC(=O)C(C)(C)O)CC1` [Cpd 009, 2-hydroxy-2-methyl-N-[1-(2-methyl-5-{[2-(trifluoromethyl)pyridin-3-yl]methoxy}-1-benzofuran-3-yl)cyclopropyl]propanamide], with less than 1000 nM.
In turn, `COCC(=O)NC1(c2c(C)oc3ccc(OCc4cccnc4C(F)(F)F)cc23)CC1` [Cpd 010, 2-methoxy-N-[1-(2-methyl-5-{[2-(trifluoromethyl)pyridin-3-yl]methoxy}-1-benzofuran-3-yl)cyclopropyl]acetamide] registered a 50% inhibitory concentration (IC50) of less than 1000 nM.
Consider `Cc1ncsc1COc1ccc2oc(C)c(C3(C#N)CC3)c2c1` [Cpd 011, 1-{2-methyl-5-[(4-methyl-1,3-thiazol-5-yl)methoxy]-1-benzofuran-3-yl}cyclopropane-i-carbonitrile], for which the IC50 is less than 1000 nM.
The result for `Cc1oc2ccc(OCc3cccnc3C(F)(F)F)cc2c1C1(NCC(N)=O)CC1` [Cpd 012, 2-{[1-(2-methyl-5-{[2-(trifluoromethyl)pyridin-3-yl]methoxy}-1-benzofuran-3-yl)cyclopropyl]amino}acetamide] reads less than 1000 nM; that for `Cc1oc2ccc(OCc3cccnc3C(F)(F)F)cc2c1C1(NS(=O)(=O)CC2CC2)CC1` [Cpd 013, 1-cyclopropyl-N-[1-(2-methyl-5-{[2-(trifluoromethyl)pyridin-3-yl]methoxy}-1-benzofuran-3-yl)cyclopropyl]methanesulfonamide], less than 1000 nM.
Then `Cc1oc2ccc(OCc3cccnc3C(F)(F)F)cc2c1C1(N)CC1` [Cpd 014, 1-(2-methyl-5-{[2-(trifluoromethyl)pyridin-3-yl]methoxy}-1-benzofuran-3-yl)cyclopropan-1-amine], with 1000 to 20000 nM; and `Cc1oc2ccc(OCc3cccnc3C(F)(F)F)cc2c1C1(NC(C)C(N)=O)CC1` (centres unmarked) [Cpd 015, 2-{[1-(2-methyl-5-{[2-(trifluoromethyl)pyridin-3-yl]methoxy}-1-benzofuran-3-yl)cyclopropyl]amino}propanamide], with 1000 to 20000 nM; and `Cc1oc2ccc(OCc3cccnc3C(F)(F)F)cc2c1C1(CN)CC1` [Cpd 016, 1-[1-(2-methyl-5-{[2-(trifluoromethyl)pyridin-3-yl]methoxy}-1-benzofuran-3-yl)cyclopropyl]methanamine], with 1000 to 20000 nM.
The result for `Cc1ncsc1COc1ccc2oc(C)c(C3(NC(=O)CO)CC3)c2c1` [Cpd 017, 2-hydroxy-N-(1-{2-methyl-5-[(4-methyl-1,3-thiazol-5-yl)methoxy]-1-benzofuran-3-yl}cyclopropyl)acetamide] reads 1000 to 20000 nM; that for `Cc1oc2ccc(OCc3cccnc3O)cc2c1C1=NC(CO)(CO)CO1` [Cpd 018, 3-[({3-[4,4-bis(hydroxymethyl)-4,5-dihydro-1,3-oxazol-2-yl]-2-methyl-1-benzofuran-5-yl}oxy)methyl]pyridin-2-ol], 1000 to 20000 nM.
For the molecule `Cc1oc2ccc(OCc3ccccc3)cc2c1C1(C#N)CC1` [Cpd 019, 1-[5-(benzyloxy)-2-methyl-1-benzofuran-3-yl]cyclopropane-1-carbonitrile], the IC50 lay in the range of 1000 to 20000 nM.
`Cc1ncsc1COc1ccc2oc(C)c(C3(C(=O)NCCO)CC3)c2c1` [Cpd 020, N-(2-hydroxyethyl)-1-{2-methyl-5-[(4-methyl-1,3-thiazol-5-yl)methoxy]-1-benzofuran-3-yl}cyclopropane-1-carboxamide]: the IC50 is 1000 to 20000 nM.
The result for `Cc1oc2ccc(OCc3ccccc3)cc2c1C1(CO)CC1` [Cpd 021, {1-[5-(benzyloxy)-2-methyl-1-benzofuran-3-yl]cyclopropyl}methanol] reads 1000 to 20000 nM; that for `Cc1ncsc1COc1ccc2oc(C)c(C3(C(N)=O)CC3)c2c1` [Cpd 022, 1-{2-methyl-5-[(4-methyl-1,3-thiazol-5-yl)methoxy]-1-benzofuran-3-yl}cyclopropane-1-carboxamide], 1000 to 20000 nM.
On to `Cc1oc2ccc(OCc3c(F)cccc3Cl)cc2c1-c1nn[nH]n1` [Cpd 023, 5-{5-[(2-chloro-6-fluorophenyl)methoxy]-2-methyl-1-benzofuran-3-yl}-2H-1,2,3,4-tetrazole], for which the IC50 lay in the range of 1000 to 20000 nM.
The molecule `Cc1oc2ccc(OCc3ccccn3)cc2c1C1(N)CC1` [Cpd 024, 1-{2-methyl-5-[(pyridin-2-yl)methoxy]-1-benzofuran-3-yl}cyclopropan-i-amine] displayed an IC50 of 1000 to 20000 nM.
Then `Cc1oc2ccc(OCC3CC3)cc2c1C1(N)CC1` [Cpd 025, 1-[5-(cyclopropylmethoxy)-2-methyl-1-benzofuran-3-yl]cyclopropan-i-amine], with more than 20000 nM; and `Cc1ncc(COc2ccc3oc(C)c(C4(N)CC4)c3c2)s1` [Cpd 026, 1-{2-methyl-5-[(2-methyl-1,3-thiazol-5-yl)methoxy]-1-benzofuran-3-yl}cyclopropan-i-amine], with more than 20000 nM; and `Cc1ncsc1COc1ccc2oc(C)c(C3(N)CC3)c2c1` [Cpd 027, 1-{2-methyl-5-[(4-methyl-1,3-thiazol-5-yl)methoxy]-1-benzofuran-3-yl}cyclopropan-i-amine], with more than 20000 nM.
Then `Cc1noc(-c2c(C)oc3ccc(OCc4c(F)cccc4Cl)cc23)n1` [Cpd 028, 5-{5-[(2-chloro-6-fluorophenyl)methoxy]-2-methyl-1-benzofuran-3-yl}-3-methyl-1,2,4-oxadiazole], with more than 20000 nM.
Then `Cc1oc2ccc(OCc3ccccc3)cc2c1-c1cncc(CC(F)(F)F)n1` [Cpd 029, 2-[5-(benzyloxy)-2-methyl-1-benzofuran-3-yl]-6-(2,2,2-trifluoroethyl)pyrazine], with more than 20000 nM.
In the case of `Cc1oc2ccc(OCc3ccccc3)cc2c1-c1nccc(CC(F)(F)F)n1` [Cpd 030, 2-[5-(benzyloxy)-2-methyl-1-benzofuran-3-yl]-4-(2,2,2-trifluoroethyl)pyrimidine], the IC50 was more than 20000 nM.
As for `Cc1oc2ccc(OCc3ccccc3)cc2c1-c1cncc(CO)n1` [Cpd 031, {6-[5-(benzyloxy)-2-methyl-1-benzofuran-3-yl]pyrazin-2-yl}methanol], the IC50 is more than 20000 nM.
The molecule `Cc1oc2ccc(OCc3ccccc3)cc2c1-c1nccc(CO)n1` [Cpd 032, {2-[5-(benzyloxy)-2-methyl-1-benzofuran-3-yl]pyrimidin-4-yl}methanol] registered an IC50 of more than 20000 nM.
